Patent publication US20210187127A1, “CHALLENGE TEST FOR DIAGNOSING A SUBTYPE OF AUTISM SPECTRUM DISEASE” (STALICLA SA, priority 2017, published 2021)
Where two headings read alike, the source gives them in different places.

What was measured:
ASD phenotype 1 patients = assay: Challenge test with broccoli sprout extract (sulforaphane), behavioral scores; format: in vivo, humans; details: selected patient cohort
Description: (§1) The effects of sulforaphane containing Broccoli sprout extract was observed and quantified in 7 individuals suffering from ASD and previously classified as either phenotype 1 or phenotype 2 patients.
The extract was prepared from selected broccoli seeds known to have high yield of sulforaphane which were surface-disinfected and grown (sprouted) for 3 days in a commercial sprouting facility under controlled light and moisture conditions.

ASD phenotype 2 patients = details: for CGI-I: after 3 days of administration; for CGI-I / GGI-S: 7-point scale; for Clinical significance / GGI-S: after challenge test; for ADI-R-RI S score / ADI-R-C S score / ADI-R-SI S score: day 3 of challenge test; for ADI-R-SI S score: baseline 16; for ADI-R-C Change (%) / ADI-R-RI Change (%) / ADI-R-SI Change (%): day 3 vs baseline
Description: as §1
We describe a procedure consisting of an evaluation of patients with ASD prior and after administration of broccoli sprout extract. The extract was prepared from selected broccoli seeds known to have high yield of sulforaphane which were surface-disinfected and grown (sprouted) for 3 days in a commercial sprouting facility under controlled light and moisture conditions. A boiling water extract was prepared, filtered, cooled, and treated with the enzyme myrosinase (from daikon sprouts) to convert precursor glucosinolates to isothiocyanates. Behavioral evaluation of patients was performed prior, during and after administration of sulforaphane-containing broccoli sprout extract. Baseline evaluation of patients was performed using standard clinical endpoints (ADI-R subscales ADI-SI, ADI-C and ADI-RI).
Challenge regimen consisted of the administration of a Broccoli Sprout Extract dose corresponding to a total daily dosage of 4 μmol/kg of sulforaphane, administered in 3 doses over the course of the day.
The assessment of baseline scores and post challenge test scores was conducted by two experienced clinicians with extensive experience in conducting ASD clinical assessments, both of which separately rated the patients. In case of diverging scores in test subscales at baseline or after administration of the challenge test, the lowest severity score was retained. Assessment of clinical endpoints was performed at day 3 of administration of challenge test. Behavioral Outcome Measures: (primary efficacy endpoints): ABC, SRS; CGI-S, CGI-I and ADI-R (ADI-SI, ADI-C, ADI-RI).

[1] = Singh K et al., PNAS 2014; cited from earlier work
[2] = system: lymphoblastoid cell lines of ASD phenotype 1 patients; assay: Biolog Phenotype Mammalian MicroArrays, NADH production (redox dye); format: cell-based, human; details: cells exposed to the growth factor or cytokine; FIG. 1 (AUC) and Table 1
Description: From all subjects, blood samples were collected and lymphoblastoid cell lines generated. Briefly, tubes containing anticoagulant citrate dextrose (ACD) were used to collect blood samples via venipuncture, in order to ensure that the blood cells remained metabolically active. The tubes were kept at room temperature and processed within 24 hours.
Cell lines were obtained by immortalization of lymphocytes from blood samples using Epstein-Barr virus.
Energy production of cells was measured using commercially available Phenotype Mammalian MicroArrays (PM-Ms, Biolog, Hayward, Calif., USA).
The compound in each well was designed to be used by the cells, either as the sole energy source or as the metabolic effector influencing the utilization of an energy source (α-D-glucose) added in the cell suspension. […] Before plating, cell viability and number were assessed utilizing a BioRad cell counter and a trypan blue dye. The concentration of live cells required for plating was 4×10^5 cells/mL, corresponding to 20,000 cells per well in a volume of 50 μL. […] Cells were incubated for 48 h at 37° C. in 5% CO2, using the modified Biolog IF-M1 medium.
The Biolog IF-M1 medium was modified for plates PM-M1 to M4 by adding the following to 100 mL of Biolog IF-M1: 1.1 mL of 100× penicillin/streptomycin solution, 0.16 mL of 200 mM glutamine (final concentration 0.3 mM), and 5.3 mL of Fetal Bovine Serum (FBS, final concentration 5%). For plates PM-M5 to M8, 5.5 mM α-D-glucose will be added in place of FBS.
During the 48-hour incubation, the only energy source the cells had was the chemical in the well. After this first incubation, Biolog Redox Dye Mix MB was added (10 μL/well) and the plates were incubated under the same conditions for an additional 24 hours. As the cells metabolized the energy source, tetrazolium dye in the media was reduced, producing a purple color according to the amount of NADH generated.
For the last 24 hours of the experiment, the plates were incubated in the Omnilog system, which collects optical density readings every 15 minutes, generating 96 data-points for each well. The system also elaborated the kinetic curve for the metabolic reaction in each well and extrapolated parameters such as slope, highest point, endpoint, area under the curve (AUC), and lag.
At the end of the 24-hour incubation, the plates were analyzed utilizing a microplate reader with readings at 590 and 750 nm. The first value (A590) indicated the highest absorbance peak of the redox dye and the second value (A750) gave a measure of the background noise. The relative absorbance (A590-750) was calculated per well.

[3] = Example 4 Patient 1 (phenotype 2)
[4] = Example 4 Patient 2 (phenotype 2)

C[S@@+]([O-])CCCCN=C=S [sulforaphane, 1-isothiocyanato-4R-(methylsulfinyl)butane]
reducing disease severity as measured through the ADI-R, SRS and GGI-S/CGI-I (ASD phenotype 1 patients): not effective
CGI-I (ASD phenotype 2 patients; [3]): 2
Clinical significance (ASD phenotype 2 patients; [3]): Very much improved
GGI-S (ASD phenotype 2 patients; [3]): 4
ADI-R-RI S score (ASD phenotype 2 patients; Example 4 Patient 1 (phenotype 2), baseline 3): 3
ADI-R-C S score (ASD phenotype 2 patients; Example 4 Patient 1 (phenotype 2), baseline 12): 10
ADI-R-SI S score (ASD phenotype 2 patients; [3]): 12
ADI-R-C Change (%) (ASD phenotype 2 patients; [3]): −20%
ADI-R-RI Change (%) (ASD phenotype 2 patients; [3]): 0%
ADI-R-SI Change (%) (ASD phenotype 2 patients; [3]): −33%
CGI-I (ASD phenotype 2 patients; [4]): 2
Clinical significance (ASD phenotype 2 patients; [4]): Very much improved
GGI-S (ASD phenotype 2 patients; [4]): 4
ADI-R-RI S score (ASD phenotype 2 patients; Example 4 Patient 2 (phenotype 2), baseline 5): 4
ADI-R-C S score (ASD phenotype 2 patients; Example 4 Patient 2 (phenotype 2), baseline 11): 9
ADI-R-SI S score (ASD phenotype 2 patients; [4]): 14
ADI-R-C Change (%) (ASD phenotype 2 patients; [4]): −22%
ADI-R-RI Change (%) (ASD phenotype 2 patients; [4]): −25%
ADI-R-SI Change (%) (ASD phenotype 2 patients; [4]): −14%
tolerability of administration to humans [1]: well tolerated
toxicity [1]: low toxicity

FGF-1(aFGF): growth factor that selectively targets the PI3K-Akt-mTOR pathway
production of NADH in ASD phenotype 1 cells compared to TDs and non-phenotype 1 cells [2]: significantly reduced production of NADH

IGF-I: insulin-like growth factor 1
production of NADH in ASD phenotype 1 cells compared to TDs and non-phenotype 1 cells [2]: no significant differences

IL-1beta: Th1 cytokine
production of NADH in ASD phenotype 1 cells compared to TDs and non-phenotype 1 cells [2]: significantly lower levels of NADH

IL-6: Th1 cytokine
production of NADH in ASD phenotype 1 cells compared to TDs and non-phenotype 1 cells [2]: significantly lower levels of NADH

PDGF-AB: platelet-derived growth factor AB
production of NADH in ASD phenotype 1 cells compared to TDs and non-phenotype 1 cells [2]: no significant differences

hGH(Somatotropin): growth factor that selectively targets the PI3K-Akt-mTOR pathway
production of NADH in ASD phenotype 1 cells compared to TDs and non-phenotype 1 cells [2]: significantly reduced production of NADH
